In US20100298141A1, “SUBSTITUTED PYRIDINE N-OXIDE HERBICIDES” (E. I. DU PONT DE NEMOURS AND COMPANY, priority 2007, published 2010):

How the values were obtained:
Test in all cases: Test F preemergence test
Settings in all cases: scale 0 to 100
quackgrass = format: in vivo, Elytrigia repens
Procedure, shortened: (§1)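 Preemergence application to planted seeds, or postemergence to sugarcane plants; compound in non-phytotoxic solvent mix plus surfactant. Greenhouse, 14-21 days. Visual rating vs. controls.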

barnyardgrass = format: in vivo, Echinochloa crus-galli
Procedure, shortened: as §1

common groundsel = format: in vivo, Senecio vulgaris
Procedure, shortened: as §1

common ragweed = format: in vivo, Ambrosia elation
Procedure, shortened: as §1

kochia = format: in vivo, Kochia scoparia
Procedure, shortened: as §1

prickly sida = format: in vivo, Sida spinosa
Procedure, shortened: as §1

dallisgrass = format: in vivo, Paspalum dilatatum
Procedure, shortened: as §1

large crabgrass = format: in vivo, Digitaria sanguinalis
Procedure, shortened: as §1

pitted morningglory = format: in vivo, Ipomoea lacunosa
Procedure, shortened: as §1

Surinam grass = format: in vivo, Brachiaria decumbens
Procedure, shortened: as §1

Italian ryegrass = format: in vivo, Lolium multiflorum
Procedure, shortened: as §1

common purslane = format: in vivo, Portulaca oleracea
Procedure, shortened: as §1

guineagrass = format: in vivo, Panicum maximum
Procedure, shortened: as §1

itchgrass = format: in vivo, Rottboellia cochinchinensis
Procedure, shortened: as §1

naked crabgrass = format: in vivo, Digitaria nuda
Procedure, shortened: as §1

Virginia dayflower = format: in vivo, Commelina virginica
Procedure, shortened: as §1

goosegrass = format: in vivo, Eleusine indica
Procedure, shortened: as §1

mustard = format: in vivo, Brassica nigra
Procedure, shortened: as §1

johnsongrass = format: in vivo, Sorghum halepense
Procedure, shortened: as §1

broadleaf signalgrass = format: in vivo, Brachiaria platyphylla
Procedure, shortened: as §1

bermudagrass = format: in vivo, Cynodon dactylon
Procedure, shortened: as §1

Structure (SMILES): Cn1nc(C(F)(F)F)c(C[S+]([O-])c2cccc[n+]2[O-])c1OC(F)F (centres unmarked) [Compound 3]
- Plant response rating, Quackgrass (quackgrass; 8 g ai/ha, preemergence): 0
- Quackgrass plant response rating (quackgrass; 62 g ai/ha, Preemergence): 75
- Plant response rating, Quackgrass (quackgrass; Preemergence, 16 g ai/ha): 15
- Plant response rating, Quackgrass (quackgrass; Preemergence, 31 g ai/ha): 70
- Plant response rating, Barnyardgrass (barnyardgrass; 8 g ai/ha, preemergence): 40
- Barnyardgrass plant response rating (barnyardgrass; 62 g ai/ha, Preemergence): 100
- Plant response rating, Barnyardgrass (barnyardgrass; Preemergence, 16 g ai/ha): 80
- Plant response rating, Barnyardgrass (barnyardgrass; Preemergence, 31 g ai/ha): 90
- Plant response rating, Groundsel (common groundsel; 8 g ai/ha, preemergence): 0
- Groundsel plant response rating (common groundsel; 62 g ai/ha, Preemergence): 100
- Plant response rating, Groundsel (common groundsel; Preemergence, 16 g ai/ha): 0
- Plant response rating, Groundsel (common groundsel; Preemergence, 31 g ai/ha): 60
- Plant response rating, Ragweed (common ragweed; 8 g ai/ha, preemergence): 0
- Ragweed plant response rating (common ragweed; 62 g ai/ha, Preemergence): 90
- Plant response rating, Ragweed (common ragweed; Preemergence, 16 g ai/ha): 60
- Plant response rating, Ragweed (common ragweed; Preemergence, 31 g ai/ha): 80
- Plant response rating, Kochia (kochia; 8 g ai/ha, preemergence): 20
- Kochia plant response rating (kochia; 62 g ai/ha, Preemergence): 100
- Plant response rating, Kochia (kochia; Preemergence, 16 g ai/ha): 30
- Plant response rating, Kochia (kochia; Preemergence, 31 g ai/ha): 65
- Plant response rating, Prickly Sida (prickly sida; 8 g ai/ha, preemergence): 0
- Prickly Sida plant response rating (prickly sida; 62 g ai/ha, Preemergence): 100
- Plant response rating, Prickly Sida (prickly sida; Preemergence, 16 g ai/ha): 0
- Plant response rating, Prickly Sida (prickly sida; Preemergence, 31 g ai/ha): 80
- Plant response rating, Dallisgrass (dallisgrass; 8 g ai/ha, preemergence): 0
- Dallisgrass plant response rating (dallisgrass; 62 g ai/ha, Preemergence): 98
- Plant response rating, Dallisgrass (dallisgrass; Preemergence, 16 g ai/ha): 0
- Plant response rating, Dallisgrass (dallisgrass; Preemergence, 31 g ai/ha): 75
- Plant response rating, Crabgrass, Large (large crabgrass; 8 g ai/ha, preemergence): 0
- Crabgrass, Large plant response rating (large crabgrass; 62 g ai/ha, Preemergence): 100
- Plant response rating, Crabgrass, Large (large crabgrass; Preemergence, 16 g ai/ha): 20
- Plant response rating, Crabgrass, Large (large crabgrass; Preemergence, 31 g ai/ha): 70
- Plant response rating, Morningglory (pitted morningglory; 8 g ai/ha, preemergence): 0
- Morningglory plant response rating (pitted morningglory; 62 g ai/ha, Preemergence): 35
- Plant response rating, Morningglory (pitted morningglory; Preemergence, 16 g ai/ha): 0
- Plant response rating, Surinam Grass (Surinam grass; 8 g ai/ha, preemergence): 0
- Plant response rating, Surinam Grass (Surinam grass; 16 g ai/ha, preemergence): 0
- Surinam Grass plant response rating (Surinam grass; 62 g ai/ha, Preemergence): 95
- Plant response rating, Surinam Grass (Surinam grass; Preemergence, 31 g ai/ha): 85
- Plant response rating, Ryegrass, Italian (Italian ryegrass; 8 g ai/ha, preemergence): 0
- Ryegrass, Italian plant response rating (Italian ryegrass; 62 g ai/ha, Preemergence): 80
- Plant response rating, Ryegrass, Italian (Italian ryegrass; Preemergence, 16 g ai/ha): 30
- Plant response rating, Ryegrass, Italian (Italian ryegrass; Preemergence, 31 g ai/ha): 65
- Plant response rating, Purslane (common purslane; 8 g ai/ha, preemergence): 0
- Purslane plant response rating (common purslane; 62 g ai/ha, Preemergence): 100
- Plant response rating, Purslane (common purslane; Preemergence, 16 g ai/ha): 0
- Plant response rating, Purslane (common purslane; Preemergence, 31 g ai/ha): 60
- Plant response rating, Guineagrass (guineagrass; 8 g ai/ha, preemergence): 0
- Guineagrass plant response rating (guineagrass; 62 g ai/ha, Preemergence): 100
- Plant response rating, Guineagrass (guineagrass; Preemergence, 16 g ai/ha): 90
- Plant response rating, Guineagrass (guineagrass; Preemergence, 31 g ai/ha): 100
- Plant response rating, Itchgrass (itchgrass; 8 g ai/ha, preemergence): 0
- Itchgrass plant response rating (itchgrass; 62 g ai/ha, Preemergence): 90
- Plant response rating, Itchgrass (itchgrass; Preemergence, 16 g ai/ha): 35
- Plant response rating, Itchgrass (itchgrass; Preemergence, 31 g ai/ha): 70
- Plant response rating, Crabgrass, Naked (naked crabgrass; 8 g ai/ha, preemergence): 20
- Crabgrass, Naked plant response rating (naked crabgrass; 62 g ai/ha, Preemergence): 100
- Plant response rating, Crabgrass, Naked (naked crabgrass; Preemergence, 16 g ai/ha): 80
- Plant response rating, Crabgrass, Naked (naked crabgrass; Preemergence, 31 g ai/ha): 90
- Plant response rating, Dayflower (Virginia dayflower; 8 g ai/ha, preemergence): 0
- Dayflower plant response rating (Virginia dayflower; 62 g ai/ha, Preemergence): 90
- Plant response rating, Dayflower (Virginia dayflower; Preemergence, 16 g ai/ha): 0
- Plant response rating, Dayflower (Virginia dayflower; Preemergence, 31 g ai/ha): 90
- Plant response rating, Goosegrass (goosegrass; 8 g ai/ha, preemergence): 0
- Goosegrass plant response rating (goosegrass; 62 g ai/ha, Preemergence): 98
- Plant response rating, Goosegrass (goosegrass; Preemergence, 16 g ai/ha): 40
- Plant response rating, Goosegrass (goosegrass; Preemergence, 31 g ai/ha): 95
- Plant response rating, Black Mustard (mustard; 8 g ai/ha, preemergence): 35
- Black Mustard plant response rating (mustard; 62 g ai/ha, Preemergence): 100
- Plant response rating, Black Mustard (mustard; Preemergence, 16 g ai/ha): 60
- Plant response rating, Black Mustard (mustard; Preemergence, 31 g ai/ha): 95
- Plant response rating, Johnsongrass (johnsongrass; 8 g ai/ha, preemergence): 0
- Johnsongrass plant response rating (johnsongrass; 62 g ai/ha, Preemergence): 95
- Plant response rating, Johnsongrass (johnsongrass; Preemergence, 16 g ai/ha): 65
- Plant response rating, Johnsongrass (johnsongrass; Preemergence, 31 g ai/ha): 90
- Plant response rating, Signalgrass (broadleaf signalgrass; 8 g ai/ha, preemergence): 0
- Plant response rating, Signalgrass (broadleaf signalgrass; 16 g ai/ha, preemergence): 0
- Signalgrass plant response rating (broadleaf signalgrass; 62 g ai/ha, Preemergence): 75
- Plant response rating, Signalgrass (broadleaf signalgrass; Preemergence, 31 g ai/ha): 75
- Plant response rating, Bermudagrass (bermudagrass; 8 g ai/ha, preemergence): 0
- Bermudagrass plant response rating (bermudagrass; 62 g ai/ha, Preemergence): 85
- Plant response rating, Bermudagrass (bermudagrass; Preemergence, 16 g ai/ha): 0
- Plant response rating, Bermudagrass (bermudagrass; Preemergence, 31 g ai/ha): 65
